Structures can show the parent of a compound that is named as a salt.
Legend:
[1] = Intrinsic dissolution in water at 37° C. (Woods apparatus pellet, UV absorbance at 343 nm); format: physicochemical
Procedure: Intrinsic Dissolution: Pellets of approximately 200 mg were pressed at 3000 lbs. for 1 minute in a standard Woods apparatus, with a surface area of 0.5 cm^2. One pellet was tested for each material. The samples were rotated in a VanKel dissolution apparatus, with automated sampling, at 100 RPM in 900 mL of water at 37° C. Aliquots were taken every two minutes and not filtered prior to analysis. […] A wavelength of approximately 343 nm was chosen for the cocrystal to avoid potential interference from maleic acid. To determine the rate of dissolution of each material, a plot was generated of the absorbance over time for each material. From this plot, a linear region was chosen from the initial dissolution period of each material. Concentrations were plotted versus time for the regions. A straight-line was fit to the data for each material. The slope of these lines provides the dissolution rate for each of the materials, expressed as [μg/mL]/min. The rates were not normalized for the surface area of the pellet. Aliquots of the dissolution medium were removed manually at the end of the run and analyzed by UV spectrophotometry, and the remainder of the pellets were recovered for XRPD analysis. FIG. 2-3 depicts the UV absorbance (at 343 nm) vs. time curves for the intrinsic dissolution experiment on flupirtine maleate in water at 37° C. […] Intrinsic dissolution experiments were performed under sink conditions in water at 37° C. […] The intrinsic dissolution rate of the 1:1 flupirtine hydrochloride maleic acid cocrystal was ˜0.21 μg/mL/min. There appeared to be a slow chemical change occurring in the dissolution medium. The solid recovered from the intrinsic dissolution experiment was analyzed by XRPD and determined to correspond to a mixture of the flupirtine hydrochloride maleic acid cocrystal and a small amount of an unidentified material.

[2] = cited from earlier work
[3] = in man; cited from earlier work
[4] = water, 37° C., 100 RPM, 900 mL, 0.5 cm^2 pellet, not normalized for surface area

| SMILES | intrinsic dissolution rate ([1]; sink conditions in water at 37° C.) [µg/mL/min] | intrinsic dissolution rate [1, 4] | aqueous solubility as indicated by low absorbance values in the intrinsic dissolution experiment ([1]; water, 37° C., UV absorbance at 343 nm) | solubility in water [2] | time to maximum plasma concentration (tmax) [3] [h] |
| --- | --- | --- | --- | --- | --- |
| CCOC(=O)Nc1ccc(NCc2ccc(F)cc2)nc1N.Cl.O=C(O)C=CC(=O)O | ~0.21 | 0.21 [μg/mL]/min |  |  |  |
| CCOC(=O)Nc1ccc(NCc2ccc(F)cc2)nc1N [flupirtine maleate] |  | 0.088 [μg/mL]/min | poor aqueous solubility | insoluble in water |  |
| CCOC(=O)Nc1ccc(NCc2ccc(F)cc2)nc1N [flupirtine, 2-amino-3-carbethoxyamino-6-(p-fluorobenzylamino)pyridine] |  |  |  |  | 2 |

Source: US20110275679A1, “FLUPIRTINE HYDROCHLORIDE MALEIC ACID COCRYSTAL” (Bionevia Pharmaceuticals, Inc., priority 2008, published 2011)
